Source: US20240239779A1, “HERBICIDAL COMPOUNDS” (SYNGENTA CROP PROTECTION AG, priority 2021, published 2024)

Columns and labels:
Format in all cases: in vivo
Conditions in all cases: 250 g/ha, evaluated after 13 days, 100=total damage to plant, 0=no damage to plant
SETFA [1] = assay: Pre-emergence biological efficacy
Procedure: (§1) Seeds of weeds and/or crops were sown in standard soil in pots. After cultivation for one day under controlled conditions in a glasshouse (at 24/19° C., day/night; 16 hours light), the plants were sprayed with an aqueous spray solution derived from the formulation of the technical active ingredient in a small amount of acetone and a special solvent and emulsifier mixture referred to as IF50 (11.12% Emulsogen EL360 TM+44.44% N-methylpyrrolidone+44.44% Dowanol DPM glycol ether), to create a 50 g/l solution which was then diluted using 0.2% Genapol XO80 as diluent to give the desired final dose of test compound.
(§2) The test plants were then grown under controlled conditions in the glasshouse (at 24/18° C., day/night; 15 hours light; 50% humidity) and watered twice daily. After 13 days the test was evaluated (100=total damage to plant; 0=no damage to plant).

EPHHL [2] = assay: Pre-emergence biological efficacy
Procedure: as §1, §2

IPOHE [3] = assay: Pre-emergence biological efficacy
Procedure: as §1, §2

LOLPE [4] = assay: Pre-emergence biological efficacy
Procedure: as §1, §2

ECHCG [5] = assay: Pre-emergence biological efficacy
Procedure: as §1, §2

AMAPA [6] = assay: Pre-emergence biological efficacy
Procedure: as §1, §2

SETFA [7] = assay: Post-emergence biological efficacy
Procedure: as §1, with “14 days” for “one day”
(§3) The test plants were then grown under controlled conditions in the glasshouse (at 24/18° C., day/night; 15 hours light; 50% humidity)and watered twice daily. After 13 days the test was evaluated (100=total damage to plant; 0=no damage to plant).

EPHHL [8] = assay: Post-emergence biological efficacy
Procedure: as §1, with “14 days” for “one day”
as §3

IPOHE [9] = assay: Post-emergence biological efficacy
Procedure: as §1, with “14 days” for “one day”
as §3

LOLPE [10] = assay: Post-emergence biological efficacy
Procedure: as §1, with “14 days” for “one day”
as §3

ECHCG [11] = assay: Post-emergence biological efficacy
Procedure: as §1, with “14 days” for “one day”
as §3

ELEIN = assay: Post-emergence biological efficacy
Procedure: as §1, with “14 days” for “one day”
as §3

DIGSA = assay: Post-emergence biological efficacy
Procedure: as §1, with “14 days” for “one day”
as §3

AMAPA [12] = assay: Post-emergence biological efficacy
Procedure: as §1, with “14 days” for “one day”
as §3

CHEAL = assay: Post-emergence biological efficacy
Procedure: as §1, with “14 days” for “one day”
as §3

`CCOC(=O)C1(C)CC(c2nc(-n3c(=O)cc(C(F)(F)F)n(C)c3=O)c(F)cc2Cl)=NO1` (stereo not drawn) [Compound 14, ethyl 3-[3-chloro-5-fluoro-6-[3-methyl-2,6-dioxo-4-(trifluoromethyl)pyrimidin-1-yl]-2-pyridyl]-5-methyl-4H-isoxazole-5-carboxylate] was tested, and the “damage to plant, SETFA” value (SETFA [1]) was 100, the “damage to plant, EPHHL” value (EPHHL [2]) was 100 and the “damage to plant, IPOHE” value (IPOHE [3]) was 100. The “damage to plant, LOLPE” value (LOLPE [4]) was 90, the “damage to plant, ECHCG” value (ECHCG [5]) was 100 and the “damage to plant, AMAPA” value (AMAPA [6]) was 100. For the same molecule, the “damage to plant, SETFA” value (SETFA [7]) was 100, the “damage to plant, EPHHL” value (EPHHL [8]) was 100 and the “damage to plant, IPOHE” value (IPOHE [9]) was 100. For the same molecule, the “damage to plant, LOLPE” value (LOLPE [10]) was 100, the “damage to plant, ECHCG” value (ECHCG [11]) was 100 and the “damage to plant, ELEIN” value (ELEIN) was 100. For the same molecule, the “damage to plant, DIGSA” value (DIGSA) was 100, the “damage to plant, AMAPA” value (AMAPA [12]) was 100 and the “damage to plant, CHEAL” value (CHEAL) was 100.
